Results taken from patent US20250084039A1, “4-SUBSTITUTED AMINOISOQUINOLINE DERIVATIVES” (Purdue Research Foundation, priority 2016, published 2025).
Where two headings read alike, the source gives them in different places.

Tests used:
[1] = system: MOLM14; experiment: Anti-proliferative effects in leukemia panel; assay type: cell-based; details: for IC50: Homo sapiens, MOLM-14
Procedure: Molm-14 cells were the kind gift of Dr. Mark Levis from Johns Hopkins University. THP-1, MV4-11, K-562 and MRC-5A cells were purchased from ATCC (ATCC, Manassas, VA). All cell lines were grown in 37° C. with 5% CO2 atmosphere with RPMI 1640 (Life technologies, Carlsbad. CA) supplemented with heat-inactivated 10% (V/V) fetal bovine serum. Cell lines were grown and maintained according to ATCC recommendations.
(§1) Cell lines were seeded into 96-well plates the afternoon prior to treatment. Approximately 18 hours later, compounds were semi-serially diluted in dimethyl sulfoxide (DMSO) and then growth medium, and added to cells. Plates were incubated for 72 hours prior to addition of Alamar Blue (Life Technologies. Carlsbad, CA). Plates were read after 4 additional hours of incubation at 37° C. using a Bio-Tek Synergy HT plate reader (Bio-Tek, Winooski. VT). Data was analyzed and graphed using GraphPad Prism Software (Graphpad. La Jolla, CA).

[2] = target: c-kit (Homo sapiens (Human), UniProt P10721); experiment: Reaction Biology HotSpot kinase assay; assay type: biochemical; details: 500 nM compound, 100 μM radiolabeled ATP
c-kit, sequence (P10721 26-976): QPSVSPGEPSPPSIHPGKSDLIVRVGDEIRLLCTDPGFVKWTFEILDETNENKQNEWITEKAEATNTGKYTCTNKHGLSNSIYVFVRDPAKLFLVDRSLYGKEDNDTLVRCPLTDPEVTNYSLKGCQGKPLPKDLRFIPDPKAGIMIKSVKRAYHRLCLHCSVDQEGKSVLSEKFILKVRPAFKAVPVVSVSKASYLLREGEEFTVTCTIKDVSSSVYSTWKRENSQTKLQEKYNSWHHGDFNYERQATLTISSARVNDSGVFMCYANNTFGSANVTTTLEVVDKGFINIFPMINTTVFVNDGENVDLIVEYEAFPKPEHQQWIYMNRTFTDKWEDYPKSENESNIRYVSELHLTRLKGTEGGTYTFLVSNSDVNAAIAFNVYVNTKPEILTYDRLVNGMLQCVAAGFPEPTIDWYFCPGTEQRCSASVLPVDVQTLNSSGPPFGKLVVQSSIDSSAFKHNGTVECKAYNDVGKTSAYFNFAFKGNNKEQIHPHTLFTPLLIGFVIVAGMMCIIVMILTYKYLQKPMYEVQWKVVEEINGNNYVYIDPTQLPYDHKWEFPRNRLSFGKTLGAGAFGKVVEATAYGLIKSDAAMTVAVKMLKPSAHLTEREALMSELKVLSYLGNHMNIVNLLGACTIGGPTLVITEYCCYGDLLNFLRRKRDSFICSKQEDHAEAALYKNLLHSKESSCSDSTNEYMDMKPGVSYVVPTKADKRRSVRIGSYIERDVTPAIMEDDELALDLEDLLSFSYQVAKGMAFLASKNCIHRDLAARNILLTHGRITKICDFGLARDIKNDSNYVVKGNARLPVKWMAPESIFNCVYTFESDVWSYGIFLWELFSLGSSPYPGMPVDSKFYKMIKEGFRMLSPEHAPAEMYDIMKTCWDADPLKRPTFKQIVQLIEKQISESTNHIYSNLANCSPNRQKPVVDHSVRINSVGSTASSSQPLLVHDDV
Procedure: (§2) The Reaction Biology Corporation (www.reactionbiology.com, Malvern, PA) HotSpot assay platform was used to measure kinase/inhibitor interactions exactly as previously described. Kinase and substrate were mixed in a buffer containing 20 mM HEPES pH 7.5, 10 mM MgCl2, 1 mM EGTA, 0.02% Brij35, 0.02 mg/mL BSA, 0.1 mM Na3VO4, 2 mM DTT and 1% DMSO. Single-dose of compounds (500 nM) were then added to each reaction mixture. After 20-minute incubation. ATP (Sigma) and [γ-^33P] ATP (Perkin Elmer) were added at a final total concentration of 100 μM for addition 2 hours at room temperature, followed by spotting onto P81 ion exchange cellulose chromatography paper (Whatman, Inc.). […] Percent remaining kinase activity of a vehicle (DMSO) containing kinase reaction was calculated for each kinase/inhibitor pair using Prism 5 (GraphPad).
as §2, with “1” for “DTT”, “incubation,” for “incubation.”

[3] = target: TRKC (Homo sapiens (Human), UniProt Q16288); experiment: Reaction Biology HotSpot kinase assay; assay type: biochemical; details: 500 nM compound, 100 μM radiolabeled ATP
TRKC, sequence (Q16288 32-839): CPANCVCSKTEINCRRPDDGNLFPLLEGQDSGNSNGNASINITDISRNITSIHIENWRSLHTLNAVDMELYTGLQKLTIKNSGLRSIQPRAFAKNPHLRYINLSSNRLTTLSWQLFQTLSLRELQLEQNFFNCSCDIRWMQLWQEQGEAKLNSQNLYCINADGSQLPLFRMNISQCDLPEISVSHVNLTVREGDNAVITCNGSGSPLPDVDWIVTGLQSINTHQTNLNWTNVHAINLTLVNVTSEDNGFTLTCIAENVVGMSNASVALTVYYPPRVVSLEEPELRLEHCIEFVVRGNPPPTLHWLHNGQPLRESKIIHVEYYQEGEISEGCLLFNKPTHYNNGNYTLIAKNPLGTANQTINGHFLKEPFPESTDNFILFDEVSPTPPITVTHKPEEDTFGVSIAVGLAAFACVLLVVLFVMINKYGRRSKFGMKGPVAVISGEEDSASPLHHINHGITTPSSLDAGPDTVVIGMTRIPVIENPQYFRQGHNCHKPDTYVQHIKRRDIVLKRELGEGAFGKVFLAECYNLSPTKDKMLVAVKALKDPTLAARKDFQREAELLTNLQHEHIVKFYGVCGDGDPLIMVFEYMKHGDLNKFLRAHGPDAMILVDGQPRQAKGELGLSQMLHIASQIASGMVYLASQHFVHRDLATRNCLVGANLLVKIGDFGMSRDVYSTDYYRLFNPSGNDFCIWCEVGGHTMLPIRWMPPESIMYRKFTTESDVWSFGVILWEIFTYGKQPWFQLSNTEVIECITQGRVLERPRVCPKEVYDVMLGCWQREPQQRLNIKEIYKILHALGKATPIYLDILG
Procedure: as §2
as §2, with “1” for “DTT”, “incubation,” for “incubation.”

[4] = system: MV4-11; experiment: Anti-proliferative effects in leukemia panel; assay type: cell-based; details: for IC50: Homo sapiens, MV4-11
Procedure: Molm-14 cells were the kind gift of Dr. Mark Levis from Johns Hopkins University. […] Cell lines were grown and maintained according to ATCC recommendations.
as §1

[5] = system: MV4-11; experiment: IC50 determination (proliferation assay, CellTiter-Blue); assay type: cell-based
Procedure: (§3) Cell lines were seeded into 96-well plates the afternoon prior to treatment. Approximately 18 hours later, compounds were diluted in dimethyl sulfoxide (DMSO) and added to cells. Plates were incubated for 72 hours and cells viability determined with CellTiter-Blue Cell Viability Assay (Promega, Madison, WI). Plates were read after 4 additional hours of incubation at 37° C. using plate reader (Bio-Tek, Winooski. VT). Data was analyzed and graphed using GraphPad Prism Software (Graphpad. La Jolla, CA). […]

[6] = system: MOLM14; experiment: as above; assay type: cell-based
Procedure: as §3

[7] = system: MV4-11; experiment: IC50 proliferation assay (Alamar Blue, 72 h); assay type: cell-based; details: read-out: IC50 (proliferation inhibition) Cell line - MV4-11
Procedure: (§4) IC50 proliferation assay—Cell lines and primary cells were seeded into 96-well plates the afternoon prior to treatment. Approximately 18 hours later, compounds were semi-serially diluted in dimethyl sulfoxide (DMSO) and then growth medium, and added to cells. Plates were incubated for 72 hours prior to addition of Alamar Blue (Life Technologies, Carlsbad, CA). Plates were read after 4 additional hours of incubation at 37° C. using a Bio-Tek Synergy HT plate reader (Bio-Tek, Winooski, VT). Data was analyzed and graphed using GraphPad Prism Software (Graphpad, La Jolla. CA).
(§5) IC50 (proliferation inhibition) against leukemia cell lines MV4-11 and K562. […] MiaPaca-2 (Pancreatic cell line), HLY-1 (Lymphoma cell line), MV4-11 (AML, cell line) and K562 (CML cell line).

[8] = system: K562; experiment: IC50 proliferation assay (Alamar Blue, 72 h); assay type: cell-based
Procedure: as §4, §5

[9] = target: c-Src (Homo sapiens (Human), UniProt P12931); experiment: Reaction Biology HotSpot kinase assay; assay type: biochemical; details: 500 nM compound; read-out: Percentage kinase inhibition c-Src
c-Src, sequence (P12931 whole entry, looked up): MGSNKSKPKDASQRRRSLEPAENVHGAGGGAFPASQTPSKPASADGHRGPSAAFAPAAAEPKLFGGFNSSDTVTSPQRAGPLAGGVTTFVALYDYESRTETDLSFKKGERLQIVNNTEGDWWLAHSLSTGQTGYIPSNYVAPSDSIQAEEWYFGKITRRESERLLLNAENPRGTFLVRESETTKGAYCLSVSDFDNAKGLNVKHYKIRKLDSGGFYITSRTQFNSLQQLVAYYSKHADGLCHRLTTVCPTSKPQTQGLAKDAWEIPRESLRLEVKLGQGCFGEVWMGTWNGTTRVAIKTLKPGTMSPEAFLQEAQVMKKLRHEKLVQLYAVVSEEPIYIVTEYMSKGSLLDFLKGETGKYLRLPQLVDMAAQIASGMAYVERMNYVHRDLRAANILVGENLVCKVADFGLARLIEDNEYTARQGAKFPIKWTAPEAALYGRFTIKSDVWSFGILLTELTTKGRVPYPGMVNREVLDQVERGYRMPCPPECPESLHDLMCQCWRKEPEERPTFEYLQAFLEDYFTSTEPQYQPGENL
Procedure: as §2
as §2, with “1” for “DTT”, “incubation,” for “incubation.”

[10] = target: FLT3 (Homo sapiens (Human), UniProt P36888); experiment: Reaction Biology HotSpot kinase assay; assay type: biochemical; details: 500 nM compound; for inhibition at 0.5 µM: read-out: % inhibition of FLT3 activity
FLT3, sequence (P36888 27-993): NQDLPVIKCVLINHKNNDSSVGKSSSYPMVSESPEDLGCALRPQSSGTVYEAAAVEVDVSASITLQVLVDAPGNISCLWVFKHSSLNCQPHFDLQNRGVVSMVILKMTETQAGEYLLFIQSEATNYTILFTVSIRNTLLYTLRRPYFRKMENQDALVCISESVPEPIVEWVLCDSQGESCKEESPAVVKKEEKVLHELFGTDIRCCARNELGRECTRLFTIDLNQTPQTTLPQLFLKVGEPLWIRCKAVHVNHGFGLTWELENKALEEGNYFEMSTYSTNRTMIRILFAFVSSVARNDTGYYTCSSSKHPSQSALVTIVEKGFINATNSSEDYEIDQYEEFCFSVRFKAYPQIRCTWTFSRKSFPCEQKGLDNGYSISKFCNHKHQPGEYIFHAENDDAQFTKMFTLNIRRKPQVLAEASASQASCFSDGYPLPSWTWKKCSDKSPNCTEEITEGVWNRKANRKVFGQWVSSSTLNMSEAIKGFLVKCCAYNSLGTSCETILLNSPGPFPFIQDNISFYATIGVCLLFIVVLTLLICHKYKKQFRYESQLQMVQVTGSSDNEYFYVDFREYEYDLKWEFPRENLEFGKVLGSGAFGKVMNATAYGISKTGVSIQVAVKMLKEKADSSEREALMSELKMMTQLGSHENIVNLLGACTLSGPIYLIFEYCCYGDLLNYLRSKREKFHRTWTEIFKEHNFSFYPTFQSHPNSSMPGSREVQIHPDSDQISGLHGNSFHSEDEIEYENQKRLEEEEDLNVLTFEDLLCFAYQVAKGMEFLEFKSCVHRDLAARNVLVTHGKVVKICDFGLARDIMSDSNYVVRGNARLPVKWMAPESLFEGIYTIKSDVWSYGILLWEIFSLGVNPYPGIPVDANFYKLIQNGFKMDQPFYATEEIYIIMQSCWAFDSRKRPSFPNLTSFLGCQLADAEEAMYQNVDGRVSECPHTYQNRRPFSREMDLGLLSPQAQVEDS
Procedure: as §2
as §2, with “1” for “DTT”, “incubation,” for “incubation.”

[11] = target: FGFR1 (Homo sapiens (Human), UniProt P11362); experiment: Reaction Biology HotSpot kinase assay; assay type: biochemical; details: 500 nM compound; read-out: Percentage kinase inhibition FGFR1
FGFR1, sequence (P11362 22-822): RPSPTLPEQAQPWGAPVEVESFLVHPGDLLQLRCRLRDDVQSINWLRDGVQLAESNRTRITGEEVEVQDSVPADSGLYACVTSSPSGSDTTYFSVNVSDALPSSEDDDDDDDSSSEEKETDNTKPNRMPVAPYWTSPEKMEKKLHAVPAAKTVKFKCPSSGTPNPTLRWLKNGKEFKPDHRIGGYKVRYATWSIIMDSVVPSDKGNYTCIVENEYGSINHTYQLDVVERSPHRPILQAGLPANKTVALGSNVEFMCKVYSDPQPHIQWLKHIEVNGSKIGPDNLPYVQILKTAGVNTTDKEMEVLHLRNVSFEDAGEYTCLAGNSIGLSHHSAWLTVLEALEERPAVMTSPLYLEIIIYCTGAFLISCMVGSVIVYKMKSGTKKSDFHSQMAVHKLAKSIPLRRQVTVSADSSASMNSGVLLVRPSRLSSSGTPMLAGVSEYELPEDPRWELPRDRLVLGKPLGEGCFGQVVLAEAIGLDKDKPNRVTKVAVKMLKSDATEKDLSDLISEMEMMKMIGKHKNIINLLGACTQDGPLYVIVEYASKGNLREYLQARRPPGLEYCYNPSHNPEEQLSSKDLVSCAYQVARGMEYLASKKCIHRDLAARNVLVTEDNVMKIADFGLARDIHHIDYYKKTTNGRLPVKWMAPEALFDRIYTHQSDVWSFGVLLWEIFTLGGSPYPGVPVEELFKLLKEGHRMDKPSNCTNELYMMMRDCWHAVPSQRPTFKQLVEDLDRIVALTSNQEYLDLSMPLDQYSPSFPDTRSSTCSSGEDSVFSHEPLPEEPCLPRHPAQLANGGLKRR
Procedure: as §2
as §2, with “1” for “DTT”, “incubation,” for “incubation.”

[12] = system: MV4-11; experiment: Activity against AML cell line MV4-11 (CellTiter-Blue, 72 h); assay type: cell-based; details: Homo sapiens, MV4-11, 72 h; read-out: IC50 against MV4-11/uM
Procedure: Cells were added to 96 well plates at 2000 cells per well for adherent lines and 4000 cells per well for suspension lines and kept in an incubator overnight. The following day the plates were treated with compounds to give rise to the final concentrations of; 100 μM, 10 μM, 5 μM 1 μM, 500 nM, 100 nM, 10 nM, […]. The plates were then stored in the incubator for 72 hours. On the third day the cells were assayed with 20 μL of CellTiter—Blue Cell Viability Assay per well and were incubated for 4 hours. After 4 hours' fluorescence intensity was taken on a plate reader: Excitation: 560/10 Emission: 590/10. IC50 analysis was performed on GraphPad Prism 7.

[13] = system: HeLa; experiment: Proliferation inhibition at single concentration (CellTiter-Blue); assay type: cell-based; details: 1 μM compound
Procedure: (§6) Plates were then treated with compound diluted in dimethyl sulfoxide (DMSO) as well as a DMSO control the following day for 72 hours. After this time the plates were then treated with 10 μL of CellTiter-Blue Cell Viability Assay (Promega, Madison, WI) for 4 hours. Then the plates were read on a plate reader (Bio-Tek, Winooski, VT). Data was analyzed on Excel as a percent of the DMSO vehicle.
(§7) Antiproliferative activities against AML cell line, MV4-11 (a FLT3-driven cell line) and three other solid tumors (MCF7, breast, HCT116, colon and HeLa) have been investigated (Tables 6A and 6B and FIG. 10).

[14] = system: MCF-7; experiment: as above; assay type: cell-based; details: 1 μM compound
Procedure: as §6, §7

[15] = system: MV-4-11; experiment: as above; assay type: cell-based; details: 1 μM compound
[16] = system: HCT116; experiment: as above; assay type: cell-based; details: 1 μM compound
[17] = read-out: Anti-proliferative effects in leukemia panel (μM) MV4-11
[18] = Homo sapiens, K562, 72 h, read-out: IC50 (proliferation inhibition) Cell line - K562
[19] = Homo sapiens, K562, Table 18, read-out: Inhibition of proliferation of K562 cell lines (CML)

Structure (SMILES)	IC50 [1] [µM]	inhibition at 0.5 µM [2] [%]	inhibition at 0.5 µM [3] [%]	IC50 [4, 17] [µM]	anti-proliferative activity in words, MV4-11 / AML cell lines [4]	further results
N=C(NO)c1ccc(C#Cc2c(N)ncc3ccc(Cl)cc23)cc1 [HSM1820]	0.05	86	74	0.04 ± 0.01		
Cc1ccc(C(=O)Nc2ccc(CN3CCN(C)CC3)c(C(F)(F)F)c2)cc1C#Cc1c(N)ncc2c(Cl)cccc12 [HSN353, 3-((3-amino-8-chloroisoquinolin-4-yl)ethynyl)-4-methyl-N-(4-((4-methylpiperazin-1-yl)methyl)-3-(trifluoromethyl)phenyl)benzamide]		82				IC50 ([5]; Homo sapiens, MV4-11): 3.45 ± 0.04 nM; IC50 ([6]; Homo sapiens, MOLM-14): 1.97 ± 0.1 nM; IC50 ([7]; Homo sapiens, MV4-11, 72 h): 3 nM; IC50 [8, 18]: 5 nM; IC50 [8, 19]: 5.2 ± 0.02 nM; inhibition at 0.5 µM [9]: 98%; inhibition at 0.5 µM [10]: 94%; inhibition at 0.5 µM [11]: 93%
CC1(COc2ccc3c(c2)ncn3-c2ccc3cccc(N4CCC(N)CC4)c3n2)COC1 [Crenolanib, reference compound]	0.004			0.005 ± 0.001		inhibition at 0.5 µM [10]: 99%; IC50 ([4]; read-out: anti-proliferative IC50): 0.005 µM
Nc1ncc2ccc(Cl)cc2c1C#Cc1ccc(C2=NC(C3CC3)CN2)cc1 (stereo not shown) [HSM1703]	0.1	60	49	0.3 ± 0.2		
Nc1ncc(C#Cc2ccc(C3=NCCN3)cc2)c2ccccc12 [HSM1795, 4-((4-(4,5-dihydro-1H-imidazol-2-yl)phenyl)ethynyl)isoquinolin-1-amine]						IC50 ([7]; Homo sapiens, MV4-11, 72 h): 100 nM
CC1(C)CNC(c2ccc(C#Cc3c(N)ncc4ccc(Cl)cc34)cc2)=N1 [HSM1743]	0.3	78	44	0.07 ± 0.02		
C(#Cc1cncc2ccccc12)c1ccc(C2=NCCN2)cc1 [HSM1813]	> 5	39	17	> 5	not a potent inhibitor	
N#Cc1ccc(C#Cc2c(N)ncc3ccc(Cl)cc23)cc1 [HSM1611, 4-((3-amino-6-chloroisoquinolin-4-yl)ethynyl)benzonitrile]	> 5	63	16	> 5	ineffective	IC50 [12]: 0.84 µM; anti-proliferative activity in words, MOLM-14 [1]: ineffective
Nc1ncc2ccc(Cl)cc2c1C#Cc1ccc(C2=NCCN2CCN2CCCCC2)cc1 [HSM1721]	0.3	80	52	0.08 ± 0.02		IC50 [12]: 0.015 µM
Cc1ccc(C(=O)NCc2ccc(OCCN(C)C)cc2)cc1C#Cc1cc(N)nc2ccccc12 [HSN316, 3-((2-aminoquinolin-4-yl)ethynyl)-N-(4-(2-(dimethylamino)ethoxy)benzyl)-4-methylbenzamide]						IC50 ([7]; Homo sapiens, MV4-11, 72 h): 759 nM; IC50 [8, 18]: 759 nM; IC50 [8, 19]: 913 ± 0.1 nM
N=C(NO)c1cccc(C#Cc2c(N)ncc3ccc(Cl)cc23)c1 [HSM1819]	0.06	82	80	0.02 ± 0.01	very potent	
Nc1nnc2ccccc2c1C#Cc1ccc(C2=NCCN2)cc1 [HSM1796]	> 5	3	7	> 5	ineffective	
Cc1ccc(C(=O)NCc2ccc(OCCN(C)C)cc2)cc1C#Cc1c(N)ncc2ccc(Cl)cc12 [HSN315]						Percent inhibition of proliferation HeLa [13]: 100%; Percent inhibition of proliferation MCF-7 [14]: 100%; IC50 [5]: 549 ± 7.4 nM; proliferation inhibition in words, MV4-11 / AML [5]: only moderate inhibitors; IC50 [6]: 523 ± 6.4 nM; IC50 ([7]; 72 h): 540 nM; IC50 ([8]; 72 h, read-out: IC50 (proliferation inhibition) Cell line - K562): 203 nM; IC50 ([8]; Table 18, read-out: Inhibition of proliferation of K562 cell lines (CML)): 203 ± 0.1 nM; % inhibition of FLT3 activity [10]: 32%; Percent inhibition of proliferation MV-4-11 [15]: 83%; Percent inhibition of proliferation HCT116 [16]: 66%
